The values below come from patent US20190144423A1, “AMIDE-SUBSTITUTED PYRIDINYLTRIAZOLE DERIVATIVES AND USES THEREOF” (BAYER PHARMA AKTIENGESELLSCHAFT, priority 2016, published 2019).

Assay [1] deals with T1, human V2 receptor (Homo sapiens, UniProt P30518).
T1 construct: expressed in transfected cells; host or cells: CHO K1 (ATCC) line expressing firefly luciferase under a CRE-responsive promoter
The assay is described as follows: Cellular in vitro assay for determining vasopressin receptor activity (V2 cell line, CRE-luciferase). As to conditions: CHO cell line transfected with human V2 receptor; antagonism of [Arg8]-vasopressin at EC50; Table 1A, compounds of the invention; read-out: IC50 hV2. The format is cell-based. The method, then: (§1) B-1. Cellular In Vitro Assay for Determining Vasopressin Receptor Activity
(§2) The identification of agonists and antagonists of the V1a and V2 vasopressin receptors from humans, rats and dogs as well as the quantification of the activity of the compounds of the invention is carried out using recombinant cell lines. These cell lines originally derive from a hamster's ovary epithelial cell (Chinese Hamster Ovary, CHO K1, ATCC: American Type Culture Collection, Manassas, Va. 20108, USA). The test cell lines constitutively express the human, rat or dog V1a or V2 receptors. In case of the Gαq-coupled V1a receptors, cells are also stably transfected with a modified form of the calcium-sensitive photoproteins aequorin (human and rat V1a) or obelin (dog V1a), which, after reconstitution with the cofactor coelenterazine, emit light when there are increases in free calcium concentrations [Rizzuto R, Simpson A W, Brini M, Pozzan T, Nature 358, 325-327 (1992); Illarionov B A, Bondar V S, Illarionova V A, Vysotski E S, Gene 153 (2), 273-274 (1995)]. The resulting vasopressin receptor cells react to stimulation of the recombinantly expressed V1a receptors by intracellular release of calcium ions, which can be quantified by the resulting photoprotein luminescence. The Gs-coupled V2 receptors are stably transfected into cell lines expressing the gene for firefly luciferase under control of a CRE-responsible promoter. Activation of V2 receptors induces the activation of the CRE-responsive promoter via cAMP increase, thereby inducing the expression of firefly luciferase. The light emitted by photoproteins of V1a cell lines as well as the light emitted by firefly luciferase of V2 cell lines corresponds to the activation or inhibition of the respective vasopressin receptor. The bioluminescence of the cell lines is detected using a suitable luminometer [Milligan G, Marshall F, Rees S, Trends in Pharmacological Sciences 17, 235-237 (1996)].
Vasopressin V2 Receptor Cell Lines:
On the day before the assay, the cells are plated out in culture medium (DMEM/F12, 2% FCS, 2 mM glutamine, 10 mM HEPES) in 384-well microtiter plates and kept in a cell incubator (96% humidity, 5% v/v CO2, 37° C.). On the day of the assay, test compounds in various concentrations and the agonist [Arg^s]-vasopressin at EC50 concentration are added together to the wells, and plates are incubated for 3 hours in a cell incubator. Upon addition of the cell lysis reagent Triton™ and the substrate luciferin, luminescence of firefly luciferase is measured in a luminometer.
(§3) Table 1A below lists individual IC50 values for the compounds of the invention (including racemic mixtures as well as separated enantiomers) that were obtained from cell lines transfected with the human V1a or V2 receptor: […]

For assay [2], the target named is T2, human V1a receptor (Homo sapiens, UniProt P37288).
T2 construct: expressed in transfected cells; host or cells: CHO K1 (ATCC), also stably transfected with a modified aequorin
T2 sequence (P37288 whole entry): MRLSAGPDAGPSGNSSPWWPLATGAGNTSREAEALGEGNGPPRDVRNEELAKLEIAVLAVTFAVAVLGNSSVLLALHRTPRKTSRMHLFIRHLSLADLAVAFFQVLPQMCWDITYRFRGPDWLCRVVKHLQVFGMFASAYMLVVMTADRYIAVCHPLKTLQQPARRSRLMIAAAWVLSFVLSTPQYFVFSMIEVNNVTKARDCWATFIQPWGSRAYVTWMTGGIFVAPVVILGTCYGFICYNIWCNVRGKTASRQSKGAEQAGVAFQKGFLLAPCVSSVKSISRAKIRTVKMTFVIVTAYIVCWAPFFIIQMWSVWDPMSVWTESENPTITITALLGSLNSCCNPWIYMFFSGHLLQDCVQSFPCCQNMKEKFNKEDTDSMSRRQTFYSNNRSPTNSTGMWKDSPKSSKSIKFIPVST
Briefly: Cellular in vitro assay for determining vasopressin receptor activity (V1a cell line, aequorin luminescence). The format is cell-based. As to conditions: Table 1A, compounds of the invention; for IC50: CHO cell line transfected with human V1a receptor, antagonism of [Arg8]-vasopressin at EC50, read-out: IC50 hV1a; for ratio IC50 hV2/hV1a: selectivity ratio. The protocol: as §1, §2
Vasopressin V1a Receptor Cell Lines:
On the day before the assay, the cells are plated out in culture medium (DMEM/F12, 2% FCS, 2 mM glutamine, 10 mM HEPES, 5 μg/ml coelenterazine) in 384-well microtiter plates and kept in a cell incubator (96% humidity, 5% v/v CO2, 37° C.). On the day of the assay, test compounds in various concentrations are placed for 10 minutes in the wells of the microtiter plate before the agonist [Arg^8]-vasopressin at EC50 concentration is added. The resulting light signal is measured immediately in a luminometer.
as §3

T1 sequence (P30518 whole entry): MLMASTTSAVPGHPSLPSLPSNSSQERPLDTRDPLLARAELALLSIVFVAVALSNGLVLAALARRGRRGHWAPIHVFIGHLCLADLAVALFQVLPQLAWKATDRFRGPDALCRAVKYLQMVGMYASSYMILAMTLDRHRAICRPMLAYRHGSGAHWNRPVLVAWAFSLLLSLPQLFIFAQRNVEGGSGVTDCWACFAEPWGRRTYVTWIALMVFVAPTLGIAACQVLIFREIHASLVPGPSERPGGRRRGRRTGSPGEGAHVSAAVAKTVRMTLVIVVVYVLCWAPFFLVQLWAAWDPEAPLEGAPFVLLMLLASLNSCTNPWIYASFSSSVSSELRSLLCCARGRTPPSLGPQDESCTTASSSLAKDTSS

As a reminder, the IC50 is the midpoint of a concentration-inhibition curve. `CCOC(=O)c1ccncc1-n1nc(Cn2nc(-c3ccc(Cl)cc3)n(C[C@H](O)C(F)(F)F)c2=O)nc1C(N)=O` [Example 8, Ethyl 3-[5-carbamoyl-3-({3-(4-chlorophenyl)-5-oxo-4-[(2S)-3,3,3-trifluoro-2-hydroxypropyl]-4,5-dihydro-1H-1,2,4-triazol-1-yl}methyl)-1H-1,2,4-triazol-1-yl]isonicotinate]: the IC50 in assay [1] was determined as 892 nM. Also, in assay [2], the IC50 stood at 25.5 nM and the “ratio IC50 hV2/hV1a” value is given as 35.0.
`NC(=O)c1nc(Cn2nc(-c3ccc(Cl)cc3)n(C[C@@H](O)C(F)(F)F)c2=O)nn1-c1cnccc1C(F)(F)F` [Example 13, 3-({3-(4-Chlorophenyl)-5-oxo-4-[(2R)-3,3,3-trifluoro-2-hydroxypropyl]-4,5-dihydro-H-1,2,4-triazol-1-yl}methyl)-1-[4-(trifluoromethyl)pyridin-3-yl]-1H-1,2,4-triazole-5-carboxamide]: the IC50 was 690 nM in assay [1] and 1.6 nM in assay [2].
Regarding `NC(=O)c1nc(Cn2nc(-c3ccc(Cl)cc3)n(C[C@H](O)C(F)(F)F)c2=O)nn1-c1ncccc1Cl` [Example 1, 3-({3-(4-Chlorophenyl)-5-oxo-4-[(2S)-3,3,3-trifluoro-2-hydroxypropyl]-4,5-dihydro-1H-1,2,4-triazol-1-yl}methyl)-1-(3-chloropyridin-2-yl)-1H-1,2,4-triazole-5-carboxamide], the figures for the IC50 in assay [1] and in assay [2] were 39 nM and 1.02 nM, respectively.
For the molecule `NC(=O)c1nc(Cn2nc(-c3ccc(Cl)cc3)n(C[C@H](O)C(F)(F)F)c2=O)nn1-c1cnccc1Cl` [Example 6, 3-({3-(4-Chlorophenyl)-5-oxo-4-[(2S)-3,3,3-trifluoro-2-hydroxypropyl]-4,5-dihydro-1H-1,2,4-triazol-1-yl}methyl)-1-(4-chloropyridin-3-yl)-1H-1,2,4-triazole-5-carboxamide], the IC50 stood at 25 nM in assay [1] and 0.57 nM in assay [2].
For `NC(=O)c1nc(Cn2nc(-c3ccc(Cl)cc3)n(CC(=O)C(F)(F)F)c2=O)nn1-c1ncccc1C(F)(F)F` [Example 17, 3-{[3-(4-Chlorophenyl)-5-oxo-4-(3,3,3-trifluoro-2-oxopropyl)-4,5-dihydro-H-1,2,4-triazol-1-yl]methyl}-1-[3-(trifluoromethyl)pyridin-2-yl]-1H-1,2,4-triazole-5-carboxamide], the “ratio IC50 hV2/hV1a” value in assay [2] was 66.0.
On to `NC(=O)c1cccnc1-n1nc(Cn2nc(-c3ccc(Cl)cc3)n(C[C@H](O)C(F)(F)F)c2=O)nc1C(N)=O` [Example 9, 2-[5-carbamoyl-3-({3-(4-chlorophenyl)-5-oxo-4-[(2S)-3,3,3-trifluoro-2-hydroxypropyl]-4,5-dihydro-1H-1,2,4-triazol-1-yl}methyl)-1H-1,2,4-triazol-1-yl]nicotinamide], for which the half-maximal inhibitory concentration (IC50) in assay [1] came out at 2250 nM. In addition, in assay [2], the IC50 stood at 75 nM and the “ratio IC50 hV2/hV1a” value stood at 30.0.
As for `NC(=O)c1nc(Cn2nc(-c3ccc(Cl)cc3)n(C[C@@H](O)C(F)(F)F)c2=O)nn1-c1ncccc1Cl` [Example 10, 3-({3-(4-Chlorophenyl)-5-oxo-4-[(2R)-3,3,3-trifluoro-2-hydroxypropyl]-4,5-dihydro-1H-1,2,4-triazol-1-yl}methyl)-1-(3-chloropyridin-2-yl)-1H-1,2,4-triazole-5-carboxamide], the values for the IC50 in assay [1] and in assay [2] were 790 nM and 6.8 nM, respectively.
`NC(=O)c1nc(Cn2nc(-c3ccc(Cl)cc3)n(C[C@@H](O)C(F)(F)F)c2=O)nn1-c1ncccc1C(F)(F)F` [Example 11, 3-({3-(4-Chlorophenyl)-5-oxo-4-[(2R)-3,3,3-trifluoro-2-hydroxypropyl]-4,5-dihydro-1H-1,2,4-triazol-1-yl}methyl)-1-[3-(trifluoromethyl)pyridin-2-yl]-1H-1,2,4-triazole-5-carboxamide]: the IC50 was determined as 610 nM in assay [1] and 3.1 nM in assay [2].
On to `NC(=O)c1nc(Cn2nc(-c3ccc(Cl)cc3)n(CC(=O)C(F)(F)F)c2=O)nn1-c1cnccc1Cl` [Example 16, 3-{[3-(4-Chlorophenyl)-5-oxo-4-(3,3,3-trifluoro-2-oxopropyl)-4,5-dihydro-1H-1,2,4-triazol-1-yl]methyl}-1-(4-chloropyridin-3-yl)-1H-1,2,4-triazole-5-carboxamide], for which the IC50 turned out to be 75 nM in assay [1] and 1.4 nM in assay [2].
In the case of `NC(=O)c1nc(Cn2nc(-c3ccc(Cl)cc3)n(C[C@@H](O)C(F)(F)F)c2=O)nn1-c1cnccc1Cl` [Example 12, 3-({3-(4-Chlorophenyl)-5-oxo-4-[(2R)-3,3,3-trifluoro-2-hydroxypropyl]-4,5-dihydro-H-1,2,4-triazol-1-yl}methyl)-1-(4-chloropyridin-3-yl)-1H-1,2,4-triazole-5-carboxamide], the concentration for half-maximal inhibition (IC50) in assay [1] was 860 nM; in assay [2], 3.45 nM.
Turning to `NC(=O)c1nc(Cn2nc(-c3ccc(Cl)cc3)n(C[C@H](O)C(F)(F)F)c2=O)nn1-c1ncccc1C(F)(F)F` [Example 2, 3-({3-(4-Chlorophenyl)-5-oxo-4-[(2S)-3,3,3-trifluoro-2-hydroxypropyl]-4,5-dihydro-1H-1,2,4-triazol-1-yl}methyl)-1-[3-(trifluoromethyl)pyridin-2-yl]-1H-1,2,4-triazole-5-carboxamide], the half-maximal inhibitory concentration (IC50) in assay [1] turned out to be 170 nM; in assay [2], 1.2 nM.
Take `NC(=O)c1nc(Cn2nc(-c3ccc(Cl)cc3)n(CC(=O)C(F)(F)F)c2=O)nn1-c1ncccc1Cl` [Example 14, 3-{[3-(4-Chlorophenyl)-5-oxo-4-(3,3,3-trifluoro-2-oxopropyl)-4,5-dihydro-H-1,2,4-triazol-1-yl]methyl}-1-(3-chloropyridin-2-yl)-1H-1,2,4-triazole-5-carboxamide]: the IC50 in assay [1] was found to be 104 nM. Besides, in assay [2], the half-inhibitory concentration (IC50) worked out at 5.2 nM and the “ratio IC50 hV2/hV1a” value came to 20.0.
On to `NC(=O)c1nc(Cn2nc(-c3ccc(Cl)cc3)n(C[C@H](O)C(F)(F)F)c2=O)nn1-c1ncccc1Br` [Example 4, 1-(3-Bromopyridin-2-yl)-3-({3-(4-chlorophenyl)-5-oxo-4-[(2S)-3,3,3-trifluoro-2-hydroxypropyl]-4,5-dihydro-1H-1,2,4-triazol-1-yl}methyl)-1H-1,2,4-triazole-5-carboxamide], for which the values for the IC50 in assay [1] and in assay [2] were 89.3 nM and 1.23 nM, respectively.
Consider `NC(=O)c1nc(Cn2nc(-c3ccc(Cl)cc3)n(C[C@H](O)C(F)(F)F)c2=O)nn1-c1cnccc1C(F)(F)F` [Example 7, 3-({3-(4-Chlorophenyl)-5-oxo-4-[(2S)-3,3,3-trifluoro-2-hydroxypropyl]-4,5-dihydro-1H-1,2,4-triazol-1-yl}methyl)-1-[4-(trifluoromethyl)pyridin-3-yl]-1H-1,2,4-triazole-5-carboxamide], for which the IC50 was determined as 293 nM in assay [1] and 2.5 nM in assay [2].
In the case of `NC(=O)c1nc(Cn2nc(-c3ccc(Cl)cc3)n(C[C@H](O)C(F)(F)F)c2=O)nn1-c1ncccc1OC(F)(F)F` [Example 3, 3-({3-(4-Chlorophenyl)-5-oxo-4-[(2S)-3,3,3-trifluoro-2-hydroxypropyl]-4,5-dihydro-1H-1,2,4-triazol-1-yl}methyl)-1-[3-(trifluoromethoxy)pyridin-2-yl]-1H-1,2,4-triazole-5-carboxamide], the IC50 in assay [1] was determined as 875 nM; in assay [2], 16 nM.
In the same order, the values of `NC(=O)c1nc(Cn2nc(-c3ccc(Cl)cc3)n(CC(=O)C(F)(F)F)c2=O)nn1-c1ncccc1Br` [Example 15, 1-(3-Bromopyridin-2-yl)-3-{[3-(4-chlorophenyl)-5-oxo-4-(3,3,3-trifluoro-2-oxopropyl)-4,5-dihydro-1H-1,2,4-triazol-1-yl]methyl}-1H-1,2,4-triazole-5-carboxamide] are 637 nM and 13.5 nM.
